From patent US6531475B1, “CRF receptor antagonists and methods relating thereto” (Neurocrine Biosciences, Inc., priority 1998, dated 2003) come the findings set out here.

The test addresses T1, human CRF receptors (Homo sapiens, UniProt P34998).
T1 construct: expressed in transfected cells; stably transfected cells, used as membrane suspension
T1 sequence (P34998 24-415): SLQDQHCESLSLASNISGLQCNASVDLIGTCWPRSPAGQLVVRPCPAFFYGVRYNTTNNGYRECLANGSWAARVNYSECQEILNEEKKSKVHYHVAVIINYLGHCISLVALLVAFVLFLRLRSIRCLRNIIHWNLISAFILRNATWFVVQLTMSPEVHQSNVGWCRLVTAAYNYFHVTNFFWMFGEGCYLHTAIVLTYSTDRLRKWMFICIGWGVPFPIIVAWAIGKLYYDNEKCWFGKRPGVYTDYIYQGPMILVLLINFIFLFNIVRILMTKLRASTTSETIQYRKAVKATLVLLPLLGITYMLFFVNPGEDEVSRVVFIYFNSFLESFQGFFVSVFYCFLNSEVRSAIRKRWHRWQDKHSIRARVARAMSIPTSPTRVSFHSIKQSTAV
Put plainly: CRF receptor radioligand binding assay (displacement of [125I]tyrosine-ovine CRF). Conditions: cells stably transfected with human CRF receptors, read-out: Ki (CRF receptor binding affinity). An excerpt: The effectiveness of a compound as a CRF receptor antagonist may be determined by various assay methods. Suitable CRF antagonists of this invention are capable of inhibiting the specific binding of CRF to its receptor and antagonizing activities associated with CRF. A compound of structure (I) may be assessed for activity as a CRF antagonist by one or more generally accepted assays for this purpose, including (but not limited to) the assays disclosed by DeSouza et al. (J. Neuroscience 7:88, 1987) and Battaglia et al. (Synapse 1:572, 1987). […] CRF receptor affinity may be determined by binding studies that measure the ability of a compound to inhibit the binding of a radiolabeled CRF (e.g., [^125I]tyrosine-CFR) to its receptor (e.g., receptors prepared from rat cerebral cortex membranes). The radioligand binding assay described by DeSouza et al. (supra, 1987) provides an assay for determining a compound's affinity for the CRF receptor. Such activity is typically calculated from the IC50 as the concentration of a compound necessary to displace 50% of the radiolabeled ligand from the receptor, and is reported as a “Ki” value calculated by the following equation: [formula]
where L=radioligand and KD=affinity of radioligand for receptor (Cheng and Prusoff, Biochem. Pharmacol. 22:3099, 1973).
With reference to CRF receptor binding affinities, CRF receptor antagonists of this invention have a Ki of less than 10 μM. […] As set forth in greater detail below, the Ki values of representative compounds of this invention were assayed by the methods set forth in Example 9.
The compounds of this invention may be evaluated for binding activity to the CRF receptor by a standard radioligand binding assay as generally described by DeSouza et al. (J. Neurosci. 7:88-100, 1987). By utilizing various radiolabeled CRF ligands, the assay may be used to evaluate the binding activity of the compounds of the present invention with any CRF receptor subtype. Briefly, the binding assay involves the displacement of a radiolabeled CRF ligand from the CRF receptor.
More specifically, the binding assay is performed in 1.5 ml Eppendorf tubes using approximately 1×10^6 cells per tube stably transfected with human CRF receptors. Each tube receives about 0.1 ml of assay buffer (e.g., Dulbecco's phosphate buffered saline, 10 mM magnesium chloride, 20 μM bacitracin) with or without unlabeled sauvagine, urotensin I or CRF (final concentration, 1 μM) to determine nonspecific binding, 0.1 ml of […] tyrosine-ovine CRF (final concentration ˜200 pM or approximately the KD as determined by Scatchard analysis) and 0.1 ml of a membrane suspension of cells containing the CRF receptor. The mixture is incubated for 2 hours at 22° C. followed by the separation of the bound and free radioligand by centrifugation. Following two washes of the pellets, the tubes are cut just above the pellet and monitored in a gamma counter for radioactivity at approximately 80% efficiency. All radioligand binding data may be analyzed using the non-linear least-square curve-fitting program LIGAND of Munson and Rodbard (Anal. Biochem. 107:220, […]).
Background: In a radioligand displacement assay an active substance lowers the binding of a labelled ligand.

Molecules are shown by their SMILES. Like-named read-outs stand apart in the source and are kept apart here.

As a reminder, the Ki is a dissociation constant, usually derived from enzyme kinetics or from competition with a known ligand.

`Cc1cc2c3c(n1)c(-c1ccc(Cl)cc1Cl)nn3CCN2C1CCCCC1C` (stereo not drawn) [I-2a-6]: under “more preferred compounds”, the Ki is under 250 nM.

In the case of `Cc1cc2c3c(n1)c(-c1ccc(Cl)cc1Cl)nn3CCN2C1CCCc2ccccc21` (stereo not drawn) [I-2a-8], the Ki (more preferred compounds) was under 250 nM and the Ki (preferred compounds) was under 1000 nM.

On to `Cc1cc2c3c(n1)c(-c1ccc(Cl)cc1Cl)nn3CCN2C(C)CCCC(C)C` (stereo not drawn) [I-2a-9], for which the Ki is under 250 nM (more preferred compounds) and under 1000 nM (preferred compounds).

With `CC[C@H]1Cn2nc(-c3ccc(C(F)(F)F)cc3OC)c3nc(C)cc(c32)N1Cc1ccc(F)cc1` [I-2a-76], the inhibitory constant (Ki) (more preferred compounds) is under 250 nM.

For `CC[C@H]1Cn2nc(-c3ccc(C(C)C)cc3C(F)(F)F)c3nc(C)cc(c32)N1CC(C)C` [I-2a-173], the Ki (preferred compounds) is under 1000 nM.

With `C=C1CN(C(CCC)CCC)c2nc(C)nc3c2c1cn3-c1ccc(Cl)cc1Cl` [I-4b-1], the inhibition constant (Ki) (more preferred compounds) was under 250 nM and the Ki (preferred compounds) was under 1000 nM.

As for `CCCC(CCC)N1CC(C)c2cn(-c3ccc(Cl)cc3Cl)c3nc(C)nc1c23` (stereo not drawn) [I-4b-2], the Ki (more preferred compounds) is under 250 nM and the Ki (preferred compounds) is under 1000 nM.

Regarding `COc1cc(C(F)(F)F)ccc1-c1nn2c3c(cc(C)nc13)N(CCC(C)C)[C@@H](C)C2` [i-2a-92], the Ki (preferred compounds) was under 1000 nM.
